Experiment [1] deals with T1, Sentrin-specific protease 6 (Homo sapiens, UniProt Q9GZR1).
T1 sequence (Q9GZR1 whole entry): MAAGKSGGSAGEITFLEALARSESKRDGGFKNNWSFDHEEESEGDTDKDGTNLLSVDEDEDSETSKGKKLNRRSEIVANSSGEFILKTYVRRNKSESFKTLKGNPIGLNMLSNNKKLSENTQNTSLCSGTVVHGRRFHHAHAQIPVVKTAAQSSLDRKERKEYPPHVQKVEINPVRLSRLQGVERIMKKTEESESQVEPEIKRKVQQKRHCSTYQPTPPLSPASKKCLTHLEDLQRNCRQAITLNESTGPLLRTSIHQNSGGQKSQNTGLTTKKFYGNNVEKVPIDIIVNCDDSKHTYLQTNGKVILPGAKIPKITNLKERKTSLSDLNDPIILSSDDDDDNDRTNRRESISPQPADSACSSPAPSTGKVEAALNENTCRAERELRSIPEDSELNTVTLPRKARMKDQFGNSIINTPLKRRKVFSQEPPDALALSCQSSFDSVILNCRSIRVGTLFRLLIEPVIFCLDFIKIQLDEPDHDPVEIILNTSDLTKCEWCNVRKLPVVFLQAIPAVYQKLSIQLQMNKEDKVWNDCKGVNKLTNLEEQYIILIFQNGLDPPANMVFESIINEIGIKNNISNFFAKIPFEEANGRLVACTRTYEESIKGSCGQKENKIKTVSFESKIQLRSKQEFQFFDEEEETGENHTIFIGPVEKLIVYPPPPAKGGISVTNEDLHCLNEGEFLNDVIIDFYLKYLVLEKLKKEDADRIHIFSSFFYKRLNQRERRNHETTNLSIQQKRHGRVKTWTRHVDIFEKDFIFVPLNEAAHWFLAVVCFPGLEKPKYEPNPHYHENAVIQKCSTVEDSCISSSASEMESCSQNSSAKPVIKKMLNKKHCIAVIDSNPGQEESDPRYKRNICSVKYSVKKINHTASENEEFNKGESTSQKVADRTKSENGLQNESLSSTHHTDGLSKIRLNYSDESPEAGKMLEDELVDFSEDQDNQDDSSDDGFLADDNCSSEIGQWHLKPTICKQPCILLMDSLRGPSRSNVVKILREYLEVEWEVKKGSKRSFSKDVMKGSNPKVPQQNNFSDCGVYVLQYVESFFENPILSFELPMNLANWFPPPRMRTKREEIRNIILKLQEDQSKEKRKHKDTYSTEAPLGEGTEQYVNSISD
The experiment can be described thus: inhibition of human SENP6 catalytic domain – biochemical, luminescence, set 2, SAR follow-up (AID 588598). Type of experiment: functional.

Experiment [2] addresses T2, Sentrin-specific protease 7 (Homo sapiens, UniProt Q9BQF6).
T2 sequence (Q9BQF6 whole entry): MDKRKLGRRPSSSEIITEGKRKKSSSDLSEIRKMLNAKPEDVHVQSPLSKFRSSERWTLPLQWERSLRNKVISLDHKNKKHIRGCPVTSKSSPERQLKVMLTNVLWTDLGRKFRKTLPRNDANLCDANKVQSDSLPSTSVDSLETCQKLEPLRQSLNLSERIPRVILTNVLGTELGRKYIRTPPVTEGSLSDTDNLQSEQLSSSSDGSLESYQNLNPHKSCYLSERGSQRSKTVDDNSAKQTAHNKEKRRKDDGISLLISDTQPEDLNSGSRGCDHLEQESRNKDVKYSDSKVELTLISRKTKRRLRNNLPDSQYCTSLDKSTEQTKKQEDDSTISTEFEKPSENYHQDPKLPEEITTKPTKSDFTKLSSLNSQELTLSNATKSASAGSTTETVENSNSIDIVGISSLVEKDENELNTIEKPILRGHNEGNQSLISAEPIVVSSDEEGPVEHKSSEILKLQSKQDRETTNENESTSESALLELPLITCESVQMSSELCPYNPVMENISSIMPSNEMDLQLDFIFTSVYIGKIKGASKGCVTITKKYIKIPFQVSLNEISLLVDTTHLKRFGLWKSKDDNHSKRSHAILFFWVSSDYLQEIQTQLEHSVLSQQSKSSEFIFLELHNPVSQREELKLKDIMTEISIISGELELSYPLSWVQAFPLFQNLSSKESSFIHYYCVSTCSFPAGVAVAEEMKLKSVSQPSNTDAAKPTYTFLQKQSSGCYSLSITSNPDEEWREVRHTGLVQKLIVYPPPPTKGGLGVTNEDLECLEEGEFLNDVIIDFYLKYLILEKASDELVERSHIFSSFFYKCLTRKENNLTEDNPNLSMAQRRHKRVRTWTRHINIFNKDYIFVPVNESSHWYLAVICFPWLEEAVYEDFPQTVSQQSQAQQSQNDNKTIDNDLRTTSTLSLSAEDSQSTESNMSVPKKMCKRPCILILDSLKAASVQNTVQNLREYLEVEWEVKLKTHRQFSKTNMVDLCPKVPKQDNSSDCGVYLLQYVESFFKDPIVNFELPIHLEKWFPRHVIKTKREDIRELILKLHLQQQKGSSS
The experiment is described as follows: inhibition of human SENP7 cleavage activity – biochemical, luminescence, set 2, SAR follow-up (AID 588600). Format: functional.

The target in experiment [3] is T3, Caspase-3 (Homo sapiens, UniProt P42574).
T3 sequence (P42574 whole entry): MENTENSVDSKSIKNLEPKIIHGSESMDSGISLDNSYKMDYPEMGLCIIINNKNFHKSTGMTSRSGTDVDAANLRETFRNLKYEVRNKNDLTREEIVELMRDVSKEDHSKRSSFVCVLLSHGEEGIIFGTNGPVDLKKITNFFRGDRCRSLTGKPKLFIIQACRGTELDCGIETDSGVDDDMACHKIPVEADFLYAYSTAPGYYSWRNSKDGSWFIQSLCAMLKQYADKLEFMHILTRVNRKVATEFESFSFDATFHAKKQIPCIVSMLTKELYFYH
The experiment can be described thus: inhibition of recombinant caspase-3 activity – biochemical, luminescence, set 2, selectivity assay for SENP protease inhibitor project, SAR follow-up (AID 588599). Type of experiment: functional.

In experiment [4] the target is T4, Sentrin-specific protease 8 (Homo sapiens, UniProt Q96LD8).
T4 sequence (Q96LD8 whole entry): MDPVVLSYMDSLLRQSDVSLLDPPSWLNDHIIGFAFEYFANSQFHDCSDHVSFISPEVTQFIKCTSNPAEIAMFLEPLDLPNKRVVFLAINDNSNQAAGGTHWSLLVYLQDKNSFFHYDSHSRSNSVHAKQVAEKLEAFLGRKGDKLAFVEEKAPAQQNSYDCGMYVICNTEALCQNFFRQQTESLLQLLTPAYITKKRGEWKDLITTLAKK
The experiment is described as follows: inhibition of sentrin protease 8 – biochemical, luminescence, set 2, SAR follow-up (AID 588601). Format: functional.

For experiment [5], the target named is Adenosylmethionine-8-amino-7-oxononanoate aminotransferase (Mycobacterium tuberculosis, UniProt P9WQ81). The experiment can be described thus: Mycobacterium tuberculosis BioA enzyme inhibitor Measured in Biochemical System Using Plate Reader - 2163-02_Inhibitor_Dose_CherryPick_Activity. Format: functional, Mycobacterium tuberculosis UT205.
Sequence of Adenosylmethionine-8-amino-7-oxononanoate aminotransferase (P9WQ81 whole entry): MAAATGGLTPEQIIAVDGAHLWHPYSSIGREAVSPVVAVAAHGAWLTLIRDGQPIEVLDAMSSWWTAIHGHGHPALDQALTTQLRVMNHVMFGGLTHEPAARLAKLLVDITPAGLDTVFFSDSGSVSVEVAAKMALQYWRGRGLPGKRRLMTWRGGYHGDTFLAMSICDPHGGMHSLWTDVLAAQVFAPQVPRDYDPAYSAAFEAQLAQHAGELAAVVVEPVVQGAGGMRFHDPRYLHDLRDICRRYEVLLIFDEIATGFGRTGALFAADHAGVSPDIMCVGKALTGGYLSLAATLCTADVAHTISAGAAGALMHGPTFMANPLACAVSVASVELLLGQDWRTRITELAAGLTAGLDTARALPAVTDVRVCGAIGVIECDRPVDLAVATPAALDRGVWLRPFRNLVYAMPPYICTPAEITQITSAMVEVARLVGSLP
The target of a further experiment is Genome polyprotein (dengue virus type 2, UniProt P29990). The experiment is described as follows: flavivirus cap methylation enzyme inhibition – biochemical, confirmation dose response, primary screen (AID 588689). Type of experiment: functional.
Sequence of Genome polyprotein (P29990 2492-3391 limits assumed): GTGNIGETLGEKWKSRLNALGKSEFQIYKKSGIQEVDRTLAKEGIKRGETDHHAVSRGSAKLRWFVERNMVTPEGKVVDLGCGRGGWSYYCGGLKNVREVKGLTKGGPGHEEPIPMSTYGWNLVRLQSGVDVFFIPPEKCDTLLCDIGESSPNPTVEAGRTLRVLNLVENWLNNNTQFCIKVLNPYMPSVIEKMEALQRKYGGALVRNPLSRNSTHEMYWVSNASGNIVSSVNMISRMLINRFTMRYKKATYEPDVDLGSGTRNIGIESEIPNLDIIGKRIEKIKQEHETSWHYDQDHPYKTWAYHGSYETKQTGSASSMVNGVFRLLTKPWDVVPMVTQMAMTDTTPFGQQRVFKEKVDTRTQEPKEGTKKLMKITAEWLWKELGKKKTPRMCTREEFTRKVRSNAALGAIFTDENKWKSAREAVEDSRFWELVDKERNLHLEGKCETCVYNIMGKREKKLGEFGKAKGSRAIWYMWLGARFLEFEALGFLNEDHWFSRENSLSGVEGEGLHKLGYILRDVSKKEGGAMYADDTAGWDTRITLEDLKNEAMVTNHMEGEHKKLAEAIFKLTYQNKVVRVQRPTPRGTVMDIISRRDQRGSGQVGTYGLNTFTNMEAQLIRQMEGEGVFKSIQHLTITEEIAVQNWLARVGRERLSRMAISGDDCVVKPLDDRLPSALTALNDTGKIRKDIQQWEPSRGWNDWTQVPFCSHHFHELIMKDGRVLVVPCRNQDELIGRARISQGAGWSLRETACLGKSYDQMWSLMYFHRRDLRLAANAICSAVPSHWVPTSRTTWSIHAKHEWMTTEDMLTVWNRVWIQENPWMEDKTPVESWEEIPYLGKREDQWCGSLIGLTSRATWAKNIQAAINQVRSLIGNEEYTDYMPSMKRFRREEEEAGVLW
Experiment [6] in a line: inhibition of ARNT PAS-B/TACC3 complex formation – biochemical, AlphaScreen, cherry-picked samples, confirmation (AID 651703).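 Also: His-tagged ARNT PAS-B domain paired with GST-TACC3 E629A dimer coactivator fragment; potency of inhibitors that break up the complex and lower AlphaScreen signal.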 Type of experiment: functional, Homo sapiens.
Experiment [7] has as its target T5, Interleukin-8 (Homo sapiens, UniProt P10145). The experiment can be described thus: Dose Response confirmation of uHTS small molecule hits for cystic fibrosis induced NFkb Inhibitors in a TNFa-induced IL8 counterscreen. Type of experiment: functional. Particulars: read-out: IC50_Mean. A general note: Counterscreens check selectivity or assay interference.
In experiment [8] the target is T5, Interleukin-8. The experiment is described as follows: Dose Response confirmation of uHTS small molecule hits for cystic fibrosis induced NFkb Inhibitors in a PAF-induced IL8 counterscreen. Format: functional. Particulars: read-out: IC50_Mean.
The target of experiment [9] is Aryl hydrocarbon receptor (Homo sapiens, UniProt P35869). Particulars: Potency.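 Also: confirmatory quantitative high-throughput screen measuring activation of the AhR signaling pathway.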
Sequence of Aryl hydrocarbon receptor (P35869 whole entry): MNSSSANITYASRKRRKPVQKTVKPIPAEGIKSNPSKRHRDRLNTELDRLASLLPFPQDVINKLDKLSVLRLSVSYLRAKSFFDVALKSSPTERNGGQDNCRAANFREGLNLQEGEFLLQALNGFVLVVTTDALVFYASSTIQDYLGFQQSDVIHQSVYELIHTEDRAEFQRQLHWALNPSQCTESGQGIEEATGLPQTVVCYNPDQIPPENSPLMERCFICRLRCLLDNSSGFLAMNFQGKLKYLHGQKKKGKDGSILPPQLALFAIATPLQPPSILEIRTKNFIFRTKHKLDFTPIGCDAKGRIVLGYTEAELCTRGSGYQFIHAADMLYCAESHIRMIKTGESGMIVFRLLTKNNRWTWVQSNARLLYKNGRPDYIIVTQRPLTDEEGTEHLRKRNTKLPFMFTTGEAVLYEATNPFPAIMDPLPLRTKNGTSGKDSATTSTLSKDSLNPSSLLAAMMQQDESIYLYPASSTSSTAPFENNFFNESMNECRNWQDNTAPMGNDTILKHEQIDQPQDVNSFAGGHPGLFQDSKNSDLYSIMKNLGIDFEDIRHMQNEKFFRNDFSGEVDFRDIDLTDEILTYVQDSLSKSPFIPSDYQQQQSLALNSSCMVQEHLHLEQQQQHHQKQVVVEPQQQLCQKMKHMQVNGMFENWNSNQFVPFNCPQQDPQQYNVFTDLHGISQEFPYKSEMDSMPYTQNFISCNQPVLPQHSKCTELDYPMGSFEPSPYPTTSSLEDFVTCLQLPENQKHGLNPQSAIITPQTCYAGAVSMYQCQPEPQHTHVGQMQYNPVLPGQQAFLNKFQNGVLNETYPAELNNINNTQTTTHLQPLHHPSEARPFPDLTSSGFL
Experiment [10] addresses T1, Sentrin-specific protease 6. The experiment can be described thus: SAR Analysis of small molecule inhibitors of Sentrin-specific protease 6 (SENP6) using a Luminescent assay. [Related pubchem assays (depositor defined):AID2582, AID2599]. Format: functional.
In experiment [11] the target is T4, Sentrin-specific protease 8. The experiment can be described thus: inhibition of human SENP8 cleavage activity – biochemical, luminescence, SAR follow-up (AID 504501). Type of experiment: functional.
Experiment [12] deals with T3, Caspase-3. The experiment is described as follows: SAR Analysis of small molecule inhibitors of Sentrin-specific proteases (SENPs) using a Caspase-3 Selectivity assay. [Related pubchem assays (depositor defined):AID2540, AID2599, AID434973, AID489001]. Format: functional.
For experiment [13], the target named is T2, Sentrin-specific protease 7. The experiment can be described thus: inhibition of human SENP7 cleavage activity – biochemical, luminescence, SAR follow-up (AID 504497). Format: functional.
For experiment [14], the target named is DNA dC->dU-editing enzyme APOBEC-3G (Homo sapiens, UniProt Q9HC16). The experiment is described as follows: inhibition of APOBEC3G ssDNA deamination – biochemical, fluorescence, single-stranded DNA substrate, SAR follow-up (AID 602136). Type of experiment: functional. Particulars: read-out: IC50_Mean.
Sequence of DNA dC->dU-editing enzyme APOBEC-3G (Q9HC16 whole entry): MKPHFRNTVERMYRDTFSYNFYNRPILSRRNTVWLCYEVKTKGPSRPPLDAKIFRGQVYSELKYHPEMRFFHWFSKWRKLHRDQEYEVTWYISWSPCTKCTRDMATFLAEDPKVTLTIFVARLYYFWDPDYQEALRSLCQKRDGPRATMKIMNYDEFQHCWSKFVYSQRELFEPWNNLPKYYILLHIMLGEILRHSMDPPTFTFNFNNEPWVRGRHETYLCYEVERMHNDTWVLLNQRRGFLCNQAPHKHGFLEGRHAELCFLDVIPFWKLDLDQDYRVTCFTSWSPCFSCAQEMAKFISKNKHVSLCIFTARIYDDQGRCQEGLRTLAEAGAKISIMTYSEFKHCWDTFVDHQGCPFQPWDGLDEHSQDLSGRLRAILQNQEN
For experiment [15], the target named is DNA dC->dU-editing enzyme APOBEC-3A (Homo sapiens, UniProt P31941). The experiment can be described thus: SAR analysis of small molecule inhibitors of APOBEC3A DNA Deaminase via a fluorescence-based single-stranded DNA deaminase assay. Type of experiment: functional. Particulars: read-out: IC50_Mean.
Sequence of DNA dC->dU-editing enzyme APOBEC-3A (P31941 whole entry): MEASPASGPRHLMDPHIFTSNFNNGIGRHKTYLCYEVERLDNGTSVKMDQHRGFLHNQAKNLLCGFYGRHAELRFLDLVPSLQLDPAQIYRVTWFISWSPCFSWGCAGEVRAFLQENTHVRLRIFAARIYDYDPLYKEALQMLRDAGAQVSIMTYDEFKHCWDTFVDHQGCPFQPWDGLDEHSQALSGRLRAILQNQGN

Active and inactive are the calls of the source.

Broadly, the AC50 is the concentration at which the activity in the assay is half-maximal.

T5 sequence (P10145 whole entry): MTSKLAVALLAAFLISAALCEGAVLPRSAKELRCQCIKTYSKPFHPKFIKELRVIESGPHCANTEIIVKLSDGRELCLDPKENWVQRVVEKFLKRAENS

On to `COc1cccc(-n2nnc3c(N4CCN(C(=O)C(=O)c5c(C)[nH]c6ccccc56)CC4)ncnc32)c1`, for which the IC50 (in experiment [1]; in [2]; on Caspase-3 [3]; in experiment [4]) was > 99 µM (inactive) in each case.
For the compound `O=C(O)CN1C(=O)/C(=C\c2cc(Br)ccc2OCc2ccc([N+](=O)[O-])cc2)SC1=S`, in experiment [5], the AC50 is 11.7 µM (active). In addition, the IC50 at Genome polyprotein was 30.3 µM (active).
On to `C/C(=N\NC(=O)c1ccncc1)C12CC3CC(CC(C3)C1)C2`, for which the AC50 in experiment [6] was 88.3 µM (active).
In the case of `C=CCn1c(Oc2ccccc2F)nc2c1c(=O)n(C)c(=O)n2C`, the values for the IC50 at Interleukin-8 [7] and on Interleukin-8 [8] were > 79 µM (inactive) and 51.1 µM (inactive), respectively.
As to `CC(C)OC(=O)Nc1cccc(Cl)c1` [CHLORPROPHAM], the concentration at half-maximal activity (AC50) in experiment [9] is 63.1 µM (inconclusive).
As to `CCCCc1ccc2nc(NC(=O)c3ccc(Br)o3)sc2c1`, the IC50 in experiment [10] is > 99 µM (inactive); in experiment [11], > 99 µM (inactive); at Caspase-3 [12] it was 11 µM (active); in experiment [1] it was 6.66 µM (active); in [2] it was 8.4 µM (active); on Caspase-3 [3], 5.94 µM (active). For the same compound, the IC50 is 3.8 µM (active) in [13] and 5.7 µM (active) in experiment [4].
`COc1ccc(-c2nnc(SCc3nc4ccsc4c(=O)[nH]3)[nH]2)cc1`: the values for the IC50 in [14] and in experiment [15] were 66.4 µM (inactive) and > 99 µM (inactive), respectively.
